Measured values: PMC5418359, “Topical Ophthalmic Formulation of Trichostatin A and SurR9-C84A for Quick Recovery Post-alkali Burn of Corneal Haze” (Frontiers in Pharmacology, 2017)

How the values were obtained:
[1] = test system: expression of survivin, TGF-beta-1, alpha-SMA and collagen IV in alkali burnt cornea; assay: Ex vivo RT-PCR dose ranging in alkali burnt rat eyes; details: 1 M NaOH 1 min, treatment 40 min
Description: This procedure was carried out using a previously published protocol ([Lin et al., 2016]). Rat eyes were harvested from humanely killed rats and washed with HBSS. Rat eyes were further incubated with 1 M NaOH for 1 min and then treated with TSA ([…]), SurR9-C84A (0.5, 1.2, and 2.5 mg/kg), pSur/As-Sur ([…]) and empty plasmid (200, 400, and 800 μg/kg) for 40 min. Untreated eyes were maintained as controls. After treatment period, eyes were washed with PBS and total RNA was extracted using the TRIzol® reagent (cat# 15596-026, Thermo Fisher Scientific, Waltham, MA, USA), and complementary DNA (cDNA) was synthesized from RNA using the RevertAid H Minus First Strand cDNA Synthesis Kit (cat# K1631, Thermo Fisher Scientific). Expression of survivin, TGF-beta-1, alpha-SMA and collagen IV was determined by polymerase chain reaction (PCR).

[2] = test system: cornea; assay: Mean opacity and mean permeability measurements, rat alkali burn model; format: in vivo; details: 1 M NaOH 1 min, topical treatment 40 min
Description: The mean in vivo scores was determined using the mean opacity measurements. The rat eyes were excised carefully and carried to the laboratory in HBSS supplemented with penicillin/streptomycin. The measurement of mean opacity was carried out using an opacitometer which measures the transmission of light through the center of each mounted cornea. The mean permeability score was determined by adding a fluorescent (rhodamine solution) on the anterior side of the holder and the corneas were incubated in a horizontal position for 90 min at 32°C. The medium in the posterior chamber was removed and added to 96 well plates and the OD at 490 nm was read. The readings obtained at OD490 were used to determine the permeability of each treatment with respect to the change in the untreated corneas.

[3] = test system: conjunctival layer and corneal matrix; assay: H&E histology of corneal segments, rat alkali burn model; format: in vivo; details: 1 M NaOH 1 min, topical treatment 40 min
Description: After the completion of the study, all tissues that required to be examined (eyes, brain, kidneys, liver, spleen, heart and lungs) were isolated. The cornea was carefully separated from the eye without damaging it and washed using phosphate buffer saline (PBS). Tissues were fixed using 4% paraformaldehyde (PF) overnight at 4°C and then washed in PBS. The tissue segments were dehydrated in graded ethanol, embedded in paraffin and 5–7 μm thick sections were cut using a microtome. Sections were collected on poly-lysine coated slides using the Leica cryostat and were fixed immediately in ice-cold acetone. All the sections were stained for haematoxylin–eosin (H&E) for critical analysis.

[4] = test system: corneal lysate; assay: Multianalyte ELISA of inflammatory cytokines in corneal lysate; format: in vivo, rat
Description: The cytokine profiling was performed using the Rat Inflammatory Cytokines & Chemokines Multi-Analyte ELISArray Kit (QIAGEN, USA). Briefly, serial dilutions of the Antigen Standard and the experimental samples were prepared. 50 μL of Assay Buffer was added to each well of the 8-well ELISA strips. Fifty microliters samples and/or standards were added to the appropriate wells of the ELISA strips and incubated for 2 h at room temperature. The ELISA strips were further washed using 350 μL 1 × Washing Buffer thrice. Hundred microliters of Detection Antibody solution was added to the ELISA strips and incubated for 1 h at room temperature. ELISA wells were washed as mentioned above. Hundred microliters of the Avidin–HRP solution was added to all wells and incubated for 30 min at room temperature. ELISA wells were washed as mentioned above. Hundred microliters of Development Solution was added to each well and incubated for 15 min at room temperature in the dark. Hundred microliters of Stop Solution was added to each well. The color changed from blue to yellow. The absorbance at 450 nm was measured within 30 min of stopping the reaction. The estimation of pg/mL of cytokines was performed using the values obtained from antigen standards and a graph was plotted for the cytokine expression with the effect of treatments.

[5] = Ocular and systemic pharmacokinetics of TSA after topical application; details: for Concentration of TSA in Aqueous humor / Concentration of TSA in Conjunctiva / Concentration of TSA in Cornea / Concentration of TSA in Plasma / Concentration of TSA in Tear fluid: mean ±SD; for AUC0-8 / AUC0-∞ / Cmax / Tmax / t1/2: rat, topical application
Description: Pharmacokinetic analysis was done using the HPLC System for the levels of TSA in eye tissue and plasma samples was measured using PK methods. PK estimated using standard measurements for maximum concentration (Cmax), time to reach Cmax (Tmax), area under the concentration–time curve (AUC), elimination rate constant (K), elimination half-life (t1/2), apparent clearance (CL/F), apparent volume of distribution (Vd/F).

[6] = Blood analysis; format: in vivo; parameters: HCT / MCH / WBC / RBC / HGB / MCHC: unit not given here; details: rat blood
Description: The analysis of blood samples was performed directly using the ABX Micros ES 60 (Horiba Medicals). The parameters analyzed included the number of red blood cells (RBC’s), white blood cells (WBC’s), platelets and hemoglobin content. Briefly, 20 μL of the blood sample was acquired in the instrument and the readings were recorded.

[7] = test system: rat corneal tissues; details: confocal microscopy
[8] = test system: rat corneal lysates
[9] = test system: rat eyes post-alkali burn
[10] = 2 min after topical application in eye
[11] = 10 min after topical application in eye
[12] = 30 min after topical application in eye

CC(/C=C/C(=O)NO)=C\[C@@H](C)C(=O)c1ccc(N(C)C)cc1 [TSA, trichostatin A]
most effective dosage in inhibiting expression of survivin, alpha-SMA, TGF-beta-1 and collagen IV [1]: 0.02 mg/kg
Mean in vitro score [2]: 0.20 ± 0.5^∗
Mean opacity measurement [2]: 0.5 ± 0.2 ^∗
Predicted irritation potential [2]: No irritation
corneal tissue integrity (conjunctival layer, corneal matrix), H&E [3]: recovery of the conjunctival layer
GMCSF expression, ELISA [4]: downregulated effectively
IFN-gamma expression, ELISA [4]: significant downregulation
IL-1 beta expression, ELISA [4]: downregulation
IL-2 expression, ELISA [4]: significantly increased
IL-4 expression, ELISA [4]: increase
IL-6 expression, ELISA [4]: downregulated effectively
IL-12 expression, ELISA [4]: further downregulation
IL-13 expression, ELISA [4]: downregulated effectively
Rantes expression, ELISA [4]: significantly downregulated
TNF-alpha expression, ELISA [4]: downregulated effectively
Concentration of TSA in Aqueous humor [5, 10]: 119.43 ± 37.92 ng/mL
Concentration of TSA in Conjunctiva [5, 10]: 267.88 ± 75.51 µg/g
Concentration of TSA in Cornea [5, 10]: 216.83 ± 78.05 µg/g
Concentration of TSA in Plasma [5, 10]: 103.61 ± 28.37 ng/mL
Concentration of TSA in Tear fluid [5, 10]: 333.42 ± 69.72 µg/g
Concentration of TSA in Aqueous humor [5, 11]: 112.94 ± 15.10 ng/mL
Concentration of TSA in Conjunctiva [5, 11]: 261.29 ± 66.47 µg/g
Concentration of TSA in Cornea [5, 11]: 291.02 ± 109.25 µg/g
Concentration of TSA in Plasma [5, 11]: 263.87 ± 80.96 ng/mL
Concentration of TSA in Tear fluid [5, 11]: 208.93 ± 30.82 µg/g
Concentration of TSA in Conjunctiva [5, 12]: 178.23 ± 35.22 µg/g
Concentration of TSA in Cornea [5, 12]: 762.86 ± 385.68 µg/g
Concentration of TSA in Plasma [5, 12]: 109.16 ± 33.00 ng/mL
Concentration of TSA in Tear fluid [5, 12]: 154.98 ± 73.25 µg/g
AUC0-8 ([5]; Aqueous humor): 7568 µg·h/g
AUC0-∞ ([5]; Aqueous humor): 7689 µg·h/g
Cmax ([5]; Aqueous humor): 11,046 ± 2734 μg/g
Tmax ([5]; Aqueous humor): 20 min
t1/2 ([5]; Aqueous humor): 90 min
AUC0-8 ([5]; Conjunctiva): 53.4 µg·h/g
Cmax ([5]; Conjunctiva): 26.26 ± 7.19 µg/g
Tmax ([5]; Conjunctiva): 5 min
t1/2 ([5]; Conjunctiva): 252 min
AUC0-8 ([5]; Cornea): 45.5 µg·h/g
AUC0-∞ ([5]; Cornea): 55.5 µg·h/g
Cmax ([5]; Cornea): 44.67 ± 12.91 µg/g
Tmax ([5]; Cornea): 5 min
t1/2 ([5]; Cornea): 210 min
AUC0-8 ([5]; Plasma): 65.5 µg·h/g
AUC0-∞ ([5]; Plasma): 68.4 µg·h/g
Cmax ([5]; Plasma): 160.3 ± 61.0 µg/g
Tmax ([5]; Plasma): 10 min
t1/2 ([5]; Plasma): 90 min
AUC0-8 ([5]; Tear fluid): 678.5 µg·h/g
AUC0-∞ ([5]; Tear fluid): 768.5 µg·h/g
Cmax ([5]; Tear fluid): 2,987 ± 1814 μg/g
Tmax ([5]; Tear fluid): 5 min
t1/2 ([5]; Tear fluid): 138 min
HCT [6]: increased the HCT count to normal range
HGB [6]: 17.61 ± 1.41
MCH [6]: reduced to normal range
MCHC [6]: 38.15 ± 1.63
PLT [6]: 256.33 ± 117
RBC [6]: 8.15 ± 0.61
WBC [6]: 5.48 ± 2.06
MCV ([6]; in fL (unit assumed)): 56.66 ± 1.86
HCT ([6]; listed as NaOH–TSA): 46.2 ± 4.14
MCH ([6]; listed as NaOH–TSA): 21.63 ± 1.01
alpha-SMA expression, immunofluorescence [7]: failed to downregulate it effectively
collagen type IV expression, immunofluorescence [7]: most effective in increasing
enhancement of Fibronectin-1 expression, western blot ([8]; post-NaOH insult): 1.97 fold
increase in TGF-beta-1 expression, western blot ([8]; post-NaOH insult): 1.45 fold
decrease/downregulation of collagen type IV, western blot ([8]; rat, in vivo, iv): 2.8 fold
Collagen type IV gene expression, qRT-PCR [9]: efficiently downregulated
Fibronectin-1 gene expression, qRT-PCR [9]: significantly enhanced
IL-1 beta gene expression, qRT-PCR [9]: increase
IL-6 gene expression, qRT-PCR [9]: significantly lowered
MMP-2 gene expression, qRT-PCR [9]: downregulating
TGF-beta-1 gene expression, qRT-PCR [9]: further increase
TNF-alpha gene expression, qRT-PCR [9]: significantly lowered
alpha-SMA gene expression, qRT-PCR [9]: significant increase
alpha-integrin 5 gene expression, qRT-PCR [9]: significant increase
